Here are results for eleven molecules from ChEMBL document CHEMBL1122588 (J Med Chem, 1984).

In series [1] the test system is P388. The series can be described thus: animal or person. The following applies: Mus musculus.
Description: In vivo antitumor activity in mice bearing P388 leukemia cells at an optimal dose of 100 mg/kg given on days 1,5,9
In a further series the test system is L1210. Description: cells. The following applies: Mus musculus, L1210, 72 h, read-out: ID50.
The test system of series [2] is P388. The series can be described thus: animal or person. The following applies: Mus musculus. This is another data set of the same source.
Description: In vivo antitumor activity in mice bearing P388 leukemia cells at an optimal dose of 300 mg/kg given on days 1,5,9.
The test system of series [3] is P388. Description: animal or person. The following applies: Mus musculus. This is another data set of the same source.
Description: In vivo antitumor activity in mice bearing P388 leukemia cells at an optimal dose of 30 mg/kg given on days 1,5,9
Series [4] deals with P388. Description: animal or person. The following applies: Mus musculus. This is another data set of the same source.
Description: In vivo antitumor activity in mice bearing P388 leukemia cells at an optimal dose of 100 mg/kg given on days 1,5,9.
The nature of a further series: physchem. The following applies: Intestine.
For series [5], the system named is P388. The series can be described thus: animal or person. The following applies: Mus musculus. The source holds these as a separate data set.
Description: In vivo antitumor activity in mice bearing P388 leukemia cells at an optimal dose of 45 mg/kg given on days 1,5,9.
Series [6] deals with P388. Description: animal or person. The following applies: Mus musculus. The source holds these as a separate data set.
Description: In vivo antitumor activity in mice bearing P388 leukemia cells at an optimal dose of 20 mg/kg given on days 1,5,9
The subject of series [7] is P388. Description: animal or person. The following applies: Mus musculus. This is another data set of the same source.
Description: In vivo antitumor activity in mice bearing P388 leukemia cells at an optimal dose of 65 mg/kg given on days 1,5,9
For series [8], the system named is P388. The series can be described thus: animal or person. The following applies: Mus musculus. This is another data set of the same source.
Description: In vivo antitumor activity in mice bearing P388 leukemia cells at an optimal dose of 45 mg/kg given on days 1,5,9
The subject of series [9] is P388. Description: animal or person. The following applies: Mus musculus. The source holds these as a separate data set.
Description: In vivo antitumor activity in mice bearing P388 leukemia cells at an optimal dose of 30 mg/kg given on days 1,5,9.
Series [10] deals with P388. The series can be described thus: animal or person. The following applies: Mus musculus. The source holds these as a separate data set.
Description: In vivo antitumor activity in mice bearing P388 leukemia cells at an optimal dose of 65 mg/kg given on days 1,5,9.
In series [11] the test system is P388. Description: animal or person. The following applies: Mus musculus. This is another data set of the same source.
Description: In vivo antitumor activity in mice bearing P388 leukemia cells at an optimal dose of 13.3 mg/kg given on days 1,5,9.
In series [12] the test system is P388. The series can be described thus: animal or person. The following applies: Mus musculus. The source holds these as a separate data set.
Description: In vivo antitumor activity in mice bearing P388 leukemia cells at an optimal dose of 20 mg/kg given on days 1,5,9.
In series [13] the test system is P388. The series can be described thus: animal or person. The following applies: Mus musculus. The source holds these as a separate data set.
Description: In vivo antitumor activity in mice bearing P388 leukemia cells at an optimal dose of 50 mg/kg given on days 1,5,9

Each structure is given as a SMILES string. Where “and” joins values, the source holds several entries; their conditions need not be identical. Equal entries are not always repeated.

Description for L1210: In vitro concentration required to reduce the murine L1210 leukemia cells in cultures to 50% after a period of 72 hr.
Description for physchem: Compound was evaluated for its rate of absorption from the intestine and pKa value was determined, lower value indicate high absorption from gastrointestinal tract.

The term ILS denotes the gain in survival time of treated over control animals, in per cent. A lower ILS goes with little gain in survival. Regarding `CNC(=O)c1cccc2c(Nc3ccc(NS(C)(=O)=O)cc3OC)c3ccccc3nc12`, the ILS at 100 mg/kg in the series on P388 [1] was 128%. The IC50 in the series with L1210 was determined as 270 nM. In addition, the ILS at 300 mg/kg in the series on P388 [2] was determined as 127%.
By pKa is commonly meant the negative logarithm of the acid dissociation constant. For the molecule `COc1cc(NS(C)(=O)=O)ccc1Nc1c2cccc(C)c2nc2c(OC)cccc12`, in the series with P388 [3], the increase in life span (ILS) at 30 mg/kg turned out to be 109%. For the same molecule, the IC50 in the series on L1210 came to 30 nM. Further, the increase in lifespan (ILS) at 100 mg/kg in the series with P388 [4] came out at 69%. For the same molecule, in the series with Nucleic Acid, the Log K is 6.21 and 6.19. This molecule returned a pKa in the series “physchem” of 6.9.
As to `COc1cc(NS(C)(=O)=O)ccc1Nc1c2cccc(C)c2nc2c(C)cccc12`, the IC50 with L1210 stood at 110 nM. This molecule also displayed an ILS at 100 mg/kg with P388 [4] of 86%. Besides, the Log K with Nucleic Acid is 6.14 and 6.46. The same molecule gave an ILS at 45 mg/kg in the series on P388 [5] of 135%.
`COc1cc(NS(C)(=O)=O)ccc1Nc1c2ccccc2nc2c(C)cccc12`: the IC50 in the series with L1210 was determined as 30 nM. The increase in life span (ILS) at 20 mg/kg in the series with P388 [6] worked out at 143%. Further, the Log K in the series with Nucleic Acid was 6.03 and 5.96. In the series on P388 [7], this molecule had an increase in lifespan (ILS) at 65 mg/kg of 47%.
As to `COc1cc(NS(C)(=O)=O)ccc1Nc1c2cccc(C)c2nc2c(C(N)=O)cccc12`, the IC50 in the series on L1210 was 47 nM. The molecule also returned an ILS at 100 mg/kg in the series on P388 [4] of 25%. For the same molecule, the ILS at 20 mg/kg with P388 [6] amounted to 113%. The Log K in the series with Nucleic Acid was 6.62 and 6.92. Besides, in “physchem”, the pKa turned out to be 6.43.
Regarding `COc1cc(NS(C)(=O)=O)ccc1Nc1c2cccc(OC)c2nc2c(OC)cccc12`, the increase in life span (ILS) at 45 mg/kg in the series on P388 [8] came to 99%. In addition, the IC50 in the series on L1210 turned out to be 65 nM. This molecule also had an ILS at 100 mg/kg in the series on P388 [4] of 48%. For the same molecule, in the series with Nucleic Acid, the Log K is 6.32 and 6.4.
`COc1cc(NS(C)(=O)=O)ccc1Nc1c2ccccc2nc2c(C(N)=O)cccc12`: in the series on P388 [9], the ILS at 30 mg/kg worked out at 113%. For the same molecule, in the series with L1210, the IC50 turned out to be 270 nM. This molecule also displayed an ILS at 100 mg/kg with P388 [4] of 11%.
Take `COc1cc(NS(C)(=O)=O)ccc1Nc1c2ccccc2nc2ccccc12` [AMSACRINE]: the ILS at 65 mg/kg in the series with P388 [10] turned out to be 63%. The Log K in the series with Nucleic Acid is 5.57 and 5.65. In addition, in the series with P388 [11], the ILS at 13.3 mg/kg stood at 78%.
Regarding `CNC(=O)c1cccc2c(Nc3ccc(NS(C)(=O)=O)cc3OC)c3cccc(OC)c3nc12`, in the series with P388 [12], the increase in lifespan (ILS) at 20 mg/kg was found to be 139%. In the series with L1210, the IC50 stood at 17 nM. The molecule further had an ILS at 100 mg/kg with P388 [4] of 34%. In addition, the Log K in the series on Nucleic Acid was 6.24 and 6.65. In the series “physchem”, this molecule came in with a pKa of 6.55.
`COc1cc(NS(C)(=O)=O)ccc1Nc1c2ccccc2nc2c(OC)cccc12` displayed an ILS at 30 mg/kg in the series on P388 [3] of 139%. Besides, in the series with L1210, the IC50 was determined as 40 nM. For the same molecule, in the series on Nucleic Acid, the Log K was 5.94 and 6. In addition, the ILS at 45 mg/kg in the series on P388 [5] stood at 23%.
`CNC(=O)c1cccc2c(Nc3ccc(NS(C)(=O)=O)cc3OC)c3cccc(C)c3nc12` [ASULACRINE]: the increase in lifespan (ILS) at 20 mg/kg in the series with P388 [6] was determined as 200%. This molecule also gave a pKa in the series “physchem” of 6.4. Besides, in the series on P388 [13], the ILS at 50 mg/kg was 164%.
